Reference: patent US8609413B2, “Neurons, astrocytes and oligodendrocytes differentiated from a mammalian pluripotent or neural stem cells exposed to a pyridine deriviative” (Research Development Foundation, priority 2007, dated 2013)
Entries after “also recorded” stand apart in the source; their conditions may differ.

Columns and labels:
[1] = tested on: human ES cell-derived engineered neural tissues (ENTs); experiment: Three-dimensional neuronal differentiation / engineered neural tissues (ENTs) from human ES cells; assay type: cell-based; conditions: for number / density of rosettes in ENT: first steps of ENT formation, 1 month old ENTs; for non-neural cells / tissue within ENT (mesenchyma, dark pigmented zones), homogeneity: macroscopic view
Description: ENTs are 3-dimensional pieces of tissues derived from embryonic stem cells (ES) which resemble certain layers of human fetal brain.
For three-dimensional neuronal differentiation, 5-10 spheres were generated as described in differentiation protocol 2 and plated on a pre-cut patch of hydrophilic polytetrafluoroethylene (PTFE) membrane (confetti, 6 mm diameter, 0.4 μm, BioCell-Interface, La Chaux-de-Fonds, Switzerland). Next, the membrane was placed in a Millicell®-CM (0.4 μm) Culture Plate Insert (Millipore) on one ml of N2 medium. The medium was changed every 2-3 days. This method has been described for tissue slices previously (Stoppini et al., 1991) and has been recently adapted to ES cell-derived neural tissue by Preynat-Seauve et al. (attached manuscript).
Next, the activity of phenazopyridine was tested on neuronal differentiation in a three-dimensional culture system.

H1 human ES cells = experiment: Neuronal differentiation of human ES cells, differentiation protocol 1; assay type: cell-based; conditions: vs DMSO
Method: Two different protocols were used to induce neuronal differentiation of human ES cells. In the first protocol, human ES cells were mechanically dissociated into small aggregates and plated on laminin/polyornithine coated six-well plates. Cells were cultured 2 weeks in human SR medium (DMEM F-12 supplemented with 15% knockout serum (Gibco), non-essential amino acids, penicillin and streptomycin), followed by 4 weeks in N2 medium. Compounds were added throughout these first 6 weeks. Subsequently, cells were mechanically dissociated and replated on polyornithine/laminin-coated 6 well plates. Throughout the text, this first differentiation protocol will be referred to as “differentiation protocol 1”. The second differentiation protocol was derived from previously described differentiation conditions (Nat et al., 2007). In the second differentiation protocol, undifferentiated human ES cells were mechanically dissociated into small aggregates and cultured in suspension on low-attachment six-well plates. For the first 4 days, they were cultured in neuronal induction medium (DMEM F-12, N2 supplement, penicillin and streptomycin), which was changed to simple neuronal proliferation medium (DMEM F-12, N2 supplement, 20 ng/ml bFGF, penicillin and streptomycin) for 2 additional days. […]
Immunostaining quantification. Immunostaining and nuclear staining quantifications were performed using the MetaXpress software (Molecular devices). Total neurite outgrowth was quantified using the neurite outgrowth analysis module, and total cell numbers were quantified with the count nuclei analysis module.
Phenazopyridine enhances neuronal differentiation of human ES cells. […] After 8 weeks of differentiation, the DMSO-treated cell population was highly heterogeneous as assessed by immunostaining for β3-tubulin, nestin, vimentin and GFAP. […] To quantify neuronal differentiation, the inventors chose to measure total neurite outgrowth and divided it by total cell number at different time points in three independent experiments (FIG. 7A).

## Nc1ccc(/N=N/c2ccccc2)c(N)n1 [phenazopyridine]
[1]; 3 μM
  quality of engineered neural tissues (ENTs): substantially increased the quality
[1]; 2 weeks and 4 weeks of differentiation, vs control
  total number of neural tubes per three-dimensional culture: significant increase
[1]
  number / density of rosettes in ENT: improved densities of rosettes
[1]; listed as Phenazopyridine
  number / density of rosettes in ENT: increased the number of rosettes
[1]; with vs without compound
  non-neural cells / tissue within ENT (mesenchyma, dark pigmented zones), homogeneity: decreased the incidence of cells differentiating into non-neuronal cells within ENT
  cartilage by immunofluorescent staining of tenascin C in ENTs: cartilage was not observed
[1]; with vs without compound, listed as phenazopridine
  non-neural cells / tissue within ENT (mesenchyma, dark pigmented zones), homogeneity: displayed less mesenchyma (FIG. 3) and fewer dark pigmented zones; also recorded: more homogenous and appeared to contain a reduced amount of non-neural cells
H1 human ES cells; 3 μM for first 6 weeks, three independent experiments, p=0.045
  total neurite outgrowth divided by total cell number (efficiency of differentiation into mature neurons): always superior to DMSO-treated cells
H1 human ES cells; after 8 weeks of differentiation
  homogeneity of cell population by immunostaining (β3-tubulin, nestin, vimentin, GFAP): more homogeneous, most cells being positive for nestin, β3-tubulin, and vimentin, with occasional neuronal networks
H1 human ES cells; after 10 weeks
  formation of neuronal networks: further neuronal networks formed
